Assay results: paper PMC4896225 (Journal of immunology (Baltimore, Md. : 1950), 2016)

Target: gp96 (Canis lupus, UniProt P41148)
Assay: gamma-32P ATP ATPase assay with purified gp96
Format: biochemical

Chain of gp96 (P41148 22-804): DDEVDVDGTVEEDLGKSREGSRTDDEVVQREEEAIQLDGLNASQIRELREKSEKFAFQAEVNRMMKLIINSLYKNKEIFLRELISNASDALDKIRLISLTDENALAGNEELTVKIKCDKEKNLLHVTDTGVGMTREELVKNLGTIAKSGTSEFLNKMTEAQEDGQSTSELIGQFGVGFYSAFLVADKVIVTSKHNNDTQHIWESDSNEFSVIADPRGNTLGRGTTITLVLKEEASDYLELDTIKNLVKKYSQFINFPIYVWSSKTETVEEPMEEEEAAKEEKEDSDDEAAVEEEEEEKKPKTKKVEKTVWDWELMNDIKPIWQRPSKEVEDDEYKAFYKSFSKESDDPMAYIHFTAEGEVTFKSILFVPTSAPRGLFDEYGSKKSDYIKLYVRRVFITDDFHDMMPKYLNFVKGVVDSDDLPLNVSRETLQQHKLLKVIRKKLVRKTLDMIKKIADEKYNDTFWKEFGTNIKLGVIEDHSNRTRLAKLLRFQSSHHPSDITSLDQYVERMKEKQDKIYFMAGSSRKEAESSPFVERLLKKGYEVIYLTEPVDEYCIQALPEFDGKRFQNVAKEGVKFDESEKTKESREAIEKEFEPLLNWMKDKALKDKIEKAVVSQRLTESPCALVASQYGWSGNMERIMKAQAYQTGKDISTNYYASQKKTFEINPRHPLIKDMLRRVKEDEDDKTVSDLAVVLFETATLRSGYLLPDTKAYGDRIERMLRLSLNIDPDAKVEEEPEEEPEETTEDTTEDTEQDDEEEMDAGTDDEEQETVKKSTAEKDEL

IC50: ~300 nM
Compound: C/C(=N\NC(=N)N)c1cc(NC(=O)CCCCCCCCC(=O)Nc2cc(/C(C)=N/NC(=N)N)cc(/C(C)=N/NC(=N)N)c2)cc(/C(C)=N/NC(=N)N)c1 [Semapimod, N, N’-bis [3,5-diacetylphenyl] decanediamide tetrakis [amidinohydrazone]]
